The record followed here is patent publication US12157746B2, “Tetrahydro-1H-pyrazino[2,1-a]isoindolylquinoline compounds for the treatment of autoimmune disease” (F. HOFFMANN-LA ROCHE AG, priority 2018, dated 2024).

The test deals with T1, human TLR9 (Homo sapiens, UniProt Q9NR96).
T1 sequence (Q9NR96 26-1032): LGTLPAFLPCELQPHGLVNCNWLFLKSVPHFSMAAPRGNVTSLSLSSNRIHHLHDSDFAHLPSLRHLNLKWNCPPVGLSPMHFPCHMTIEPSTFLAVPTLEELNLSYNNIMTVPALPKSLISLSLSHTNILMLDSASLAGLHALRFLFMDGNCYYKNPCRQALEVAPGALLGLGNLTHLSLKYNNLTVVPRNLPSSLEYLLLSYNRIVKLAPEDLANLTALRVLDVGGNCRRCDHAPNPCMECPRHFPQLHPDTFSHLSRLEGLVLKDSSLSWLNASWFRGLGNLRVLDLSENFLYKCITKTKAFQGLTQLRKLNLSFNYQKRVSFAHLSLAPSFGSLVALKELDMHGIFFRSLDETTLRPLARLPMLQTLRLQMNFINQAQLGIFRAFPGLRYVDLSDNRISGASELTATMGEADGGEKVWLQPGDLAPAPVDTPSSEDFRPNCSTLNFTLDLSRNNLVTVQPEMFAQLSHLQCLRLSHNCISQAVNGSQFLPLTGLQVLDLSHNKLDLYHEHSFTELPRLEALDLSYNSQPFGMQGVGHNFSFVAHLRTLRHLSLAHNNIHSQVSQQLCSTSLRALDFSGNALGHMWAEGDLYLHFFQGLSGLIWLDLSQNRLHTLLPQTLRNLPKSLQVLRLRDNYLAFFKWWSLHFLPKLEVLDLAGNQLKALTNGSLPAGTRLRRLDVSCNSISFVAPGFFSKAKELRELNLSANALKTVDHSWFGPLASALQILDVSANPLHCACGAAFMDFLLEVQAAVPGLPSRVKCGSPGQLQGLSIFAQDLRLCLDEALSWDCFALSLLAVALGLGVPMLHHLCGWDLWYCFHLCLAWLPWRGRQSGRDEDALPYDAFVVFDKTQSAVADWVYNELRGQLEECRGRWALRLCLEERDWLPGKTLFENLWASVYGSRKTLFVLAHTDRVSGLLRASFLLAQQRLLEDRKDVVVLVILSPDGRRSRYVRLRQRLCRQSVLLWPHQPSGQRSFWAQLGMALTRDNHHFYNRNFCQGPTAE
Description: HEK293-Blue-hTLR-9 cells assay. The class given is cell-based. As to conditions: HEK293-Blue-hTLR9 cells, ODN2006 stimulation, 20 hrs, SEAP reporter; read-out: HEK/hTLR9 IC50. The text has this: HEK293-Blue-hTLR-9 Cells Assay:
A stable HEK293-Blue-hTLR-9 cell line was purchased from InvivoGen (Cat. #: hkb-htlr9, San Diego. California USA). These cells were originally designed for studying the stimulation of human TLR9 by monitoring the activation of NF-κB. A SEAP (secreted embryonic alkaline phosphatase) reporter gene was placed under the control of the IFN-β minimal promoter fused to five NF-κB and AP-1-binding sites. The SEAP was induced by activating NF-κB and AP-1 via stimulating HEK-Blue hTLR9 cells with TLR9 ligands. Therefore the reporter expression was declined by TLR9 antagonist under the stimulation of a ligand, such as ODN2006 (Cat. #: tlrl-2006-1, Invivogen, San Diego, California USA), for incubation of 20 hrs. The cell culture supernatant SEAP reporter activity was determined using QUANTI-Blue™ kit (Cat. #: rep-qb1, Invivogen, San Diego, California, USA) at a wavelength of 640 nm, a detection medium that turns purple or blue in the presence of alkaline phosphatase.
HEK293-Blue-hTLR9 cells were incubated at a density of 250.000-450,000 cells/mL in a volume of 170 μL in a 96-well plate in Dulbecco's Modified Eagle's medium (DMEM) containing 4.5 g/L glucose, 50 U/mL penicillin, […], […], 2 mM L-glutamine, 10% (v/v) heat-inactivated fetal bovine serum with addition of 20 μL test compound 1n a serial dilution in the presence of final DMSO at 1% and 10 μL of 20 uM ODN2006 in above DMEM, perform incubation under 37° C. in a CO2 incubator for 20 hrs. Then 20 μL of the supernatant from each well was incubated with 180 μL Quanti-blue substrate solution at 37° C. for 2 h and the absorbance was read at 620˜655 nm using a spectrophotometer. The signaling pathway that TLR9 activation leads to downstream NF-κB activation has been widely accepted, and therefore similar reporter assay was modified for evaluating TLR9 antagonist.

Consider `CO[C@@H]1CN(c2ccc3c(c2)CN2[C@H](C)CN(c4ccc(C#N)n5nccc45)C[C@H]32)CC[C@H]1N` [Example 104, 4-[(4R,10bS)-8-[(3R,4R)-4-amino-3-methoxy-1-piperidyl]-4-methyl-3,4,6,10b-tetrahydro-1H-pyrazino[2,1-a]isoindol-2-yl]pyrazolo[1,5-a]pyridine-7-carbonitrile], for which the IC50 is 90.3 nM. The figure for `C[C@@H]1CN(c2ccc(C#N)c3ncccc23)C[C@@H]2c3ccc(N[C@@H]4CNC[C@@H]4F)cc3CN12` [Example 32, 5-[(4R,10bS)-8-[[(3R,4S)-4-fluoropyrrolidin-3-yl]amino]-4-methyl-3,4,6,10b-tetrahydro-1H-pyrazino[2,1-a]isoindol-2-yl]quinoline-8-carbonitrile] is 89.2 nM; for `C[C@@H]1CN(c2ccc(C#N)c3ncccc23)C[C@@H]2c3ccc(N4CCOC[C@H](N)C4)cc3CN12` [Example 54A, 5-[(4R,10bS)-8-[(6R)-6-amino-1,4-oxazepan-4-yl]-4-methyl-3,4,6,10b-tetrahydro-1H-pyrazino[2,1-a]isoindol-2-yl]quinoline-8-carbonitrile] it is 92.2 nM. As to `C[C@@H]1CN(c2ccc(C#N)n3nccc23)C[C@@H]2c3ccc(N4C[C@@H](N)[C@H](O)C4)cc3CN12` [Example 110, 4-[(4R,10bS)-8-[(3R,4R)-3-amino-4-hydroxy-pyrrolidin-1-yl]-4-methyl-3,4,6,10b-tetrahydro-1H-pyrazino[2,1-a]isoindol-2-yl]pyrazolo[1,5-a]pyridine-7-carbonitrile], the IC50 is 53 nM. Consider `C[C@@H]1CN(c2ccc(C#N)n3ncc(F)c23)C[C@@H]2c3ccc(N4C[C@H](N)[C@@](C)(O)C4)cc3CN12` [Example 112, 4-[(4R,10bS)-8-[(3S,4S)-4-amino-3-hydroxy-3-methyl-pyrrolidin-1-yl]-4-methyl-3,4,6,10b-tetrahydro-1H-pyrazino[2,1-a]isoindol-2-yl]-3-fluoro-pyrazolo[1,5-a]pyridine-7-carbonitrile], for which the IC50 worked out at 227 nM. Next, `C[C@@H]1CN(c2ccc(C#N)n3nccc23)C[C@@H]2c3ccc(N4C[C@H](N)[C@@H](O)C4)cc3CN12` [Example 111, 4-[(4R,10bS)-8-[(3S,4S)-3-amino-4-hydroxy-pyrrolidin-1-yl]-4-methyl-3,4,6,10b-tetrahydro-1H-pyrazino[2,1-a]isoindol-2-yl]pyrazolo[1,5-a]pyridine-7-carbonitrile]: 38 nM; `COC1CN(c2ccc3c(c2)CN2C3CN(c3ccc(C#N)c4ncccc34)C[C@H]2C)CC1N` (single isomer, unassigned) [Example 16B]: 97.5 nM; `C[C@@H]1CN(c2ccc(C#N)c3ncccc23)C[C@@H]2c3ccc(N4CCNCC(C)(O)C4)cc3CN12` (stereo partly drawn) [Example 55, 5-[(4R,10S)-8-(6-hydroxy-6-methyl-1,4-diazepan-1-yl)-4-methyl-3,4,6,10b-tetrahydro-1H-pyrazino[2,1-a]isoindol-2-yl]quinoline-8-carbonitrile]: 118 nM.

As to `C[C@@H]1CN(c2ccc(C#N)c3nccnc23)C[C@@H]2c3ccc(N4CCNCC4)cc3CN12` [Example 7, 8-[(4R,10bS)-4-methyl-8-piperazin-1-yl-3,4,6,10b-tetrahydro-1H-pyrazino[2,1-a]isoindol-2-yl]quinoxaline-5-carbonitrile], the IC50 worked out at 99.2 nM.

Turning to `[2H]c1ccc2c(N3C[C@@H](C)N4Cc5cc(N6CC7CNCC(C6)O7)ccc5[C@H]4C3)ccc(C#N)c2n1` [Example 93, 5-[(4R,10bS)-4-methyl-8-(9-oxa-3,7-diazabicyclo[3.3.1]nonan-3-yl)-3,4,6,10b-tetrahydro-1H-pyrazino[2,1-a]isoindol-2-yl]-2-deuterio-quinoline-8-carbonitrile], the IC50 was 69.9 nM.

With `C[C@@H]1CN(c2ccc(C#N)c3ncccc23)C[C@@H]2c3ccc(N4CC5CNCC(C4)O5)cc3CN12` [Example 14, 5-[(4R,10bS)-4-methyl-8-(9-oxa-3,7-diazabicyclo[3.3.1]nonan-3-yl)-3,4,6,10b-tetrahydro-1H-pyrazino[2,1-a]isoindol-2-yl]quinoline-8-carbonitrile], the IC50 was found to be 81.1 nM.

Consider `C[C@@H]1CN(c2ccc(C#N)c3ncccc23)C[C@@H]2c3ccc(N4CCNC[C@@H](O)C4)cc3CN12` [Example 53B, 5-[(4R,10bS)-8-[(6R)-6-hydroxy-1,4-diazepan-1-yl]-4-methyl-3,4,6,10b-tetrahydro-1H-pyrazino[2,1-a]isoindol-2-yl]quinoline-8-carbonitrile], for which the IC50 came to 68 nM. The figure for `C[C@@H]1CN(c2ccc(C#N)c3ncccc23)C[C@@H]2c3ccc(N4CCOC5CNCC54)cc3CN12` (stereo partly drawn) [Example 52, 5-[(4R,10bS)-8-(3,4a,5,6,7,7a-hexahydro-2H-pyrrolo[3,4-b][1,4]oxazin-4-yl)-4-methyl-3,4,6,10b-tetrahydro-1H-pyrazino[2,1-a]isoindol-2-yl]quinoline-8-carbonitrile] is 195 nM. The figure for `C[C@@H]1CN(c2ccc(C#N)n3nccc23)C[C@@H]2c3ccc(N4CC5CNCC(C4)O5)cc3CN12` [Example 107, 4-[(4R,10bS)-4-methyl-8-(9-oxa-3,7-diazabicyclo[3.3.1]nonan-3-yl)-3,4,6,10b-tetrahydro-1H-pyrazino[2,1-a]isoindol-2-yl]pyrazolo[1,5-a]pyridine-7-carbonitrile] is 67.9 nM.

`C[C@@H]1CN(c2ccc(C#N)c3ncccc23)C[C@@H]2c3ccc(N4C[C@H]5NCCO[C@@H]5C4)cc3CN12` [Example 44, 5-[(4R,10bS)-4-methyl-8-[(4aR,7aR)-3,4,4a,5,7,7a-hexahydro-2H-pyrrolo[3,4-b][1,4]oxazin-6-yl]-3,4,6,10b-tetrahydro-1H-pyrazino[2,1-a]isoindol-2-yl]quinoline-8-carbonitrile]: the IC50 was 102 nM. The figure for `CN[C@@H]1CN(c2ccc3c(c2)CN2[C@H](C)CN(c4ccc(C#N)c5ncccc45)C[C@H]32)C[C@H]1O` [Example 43, 5-[(4R,10bS)-4-methyl-8-[(3R,4R)-3-hydroxy-4-(methylamino)pyrrolidin-1-yl]-3,4,6,10b-tetrahydro-1H-pyrazino[2,1-a]isoindol-2-yl]quinoline-8-carbonitrile] is 55.5 nM; for `C[C@@H]1CN(c2ccc(C#N)c3ncccc23)C[C@@H]2c3ccc(N4CCNC[C@@H]4CO)cc3CN12` [Example 10, 5-[(4R,10bS)-8-[(2R)-2-(hydroxymethyl)piperazin-1-yl]-4-methyl-3,4,6,10b-tetrahydro-1H-pyrazino[2,1-a]isoindol-2-yl]quinoline-8-carbonitrile] it is 92.5 nM; for `C[C@@H]1CN(c2ccc(C#N)c3ncccc23)C[C@@H]2c3ccc(N4CC(N)C4)cc3CN12` [Example 22, 5-[(4R,10bS)-8-(3-aminoazetidin-1-yl)-4-methyl-3,4,6,10b-tetrahydro-1H-pyrazino[2,1-a]isoindol-2-yl]quinoline-8-carbonitrile] it is 104 nM.

Regarding `[2H]c1ccc2c(N3C[C@@H](C)N4Cc5cc(N[C@H]6CNC[C@H]6F)ccc5[C@H]4C3)ccc(C#N)c2n1` [Example 91, 5-[(4R,10bS)-8-[[(3S,4R)-4-fluoropyrrolidin-3-yl]amino]-4-methyl-3,4,6,10b-tetrahydro-1H-pyrazino[2,1-a]isoindol-2-yl]-2-deuterio-quinoline-8-carbonitrile], the IC50 turned out to be 70.5 nM.
